The test addresses TrpR^WT (Escherichia coli, UniProt P0A881). Description: Ptrp-GFP reporter, flow cytometry. Format: cell-based. To be noted: 1 mM ligand, E. coli Nissle 1917 trpR knockout, 37 °C, 8 h; derepression. (In flow cytometry, cells or beads pass a laser one at a time.)

With `O=C(O)Cc1c[nH]c2ccccc12` [IAA, indole-3-acetic acid], the “Ptrp-GFP reporter, flow cytometry” value was “IPA, IAA, and IAld”.

The values above are taken from paper PMC11542736 (Cell reports. Physical science, 2024).
